US20100087413A1, “Prevention and treatment of inflammation-induced and/or immune-mediated bone loss” (priority 2003, published 2010)
Where two headings read alike, the source gives them in different places. Marks after values point to notes of the source that are not given here.

What was measured:
[1] = target: T1, human 11β-HSD1 (Homo sapiens, UniProt P28845); experiment: 11β-HSD1 reductase activity (conversion of radiolabelled cortisone to cortisol) in lysates of stably transfected HEK-293 cells; assay type: biochemical; settings: for 11β-HSD1 % of control: 20 μM compound, 100 nM cortisone substrate, HEK-293 lysate
T1 construct: expressed in transfected cells; host or cells: HEK-293 cells, stably transfected; cell lysate
T1 sequence (P28845 whole entry): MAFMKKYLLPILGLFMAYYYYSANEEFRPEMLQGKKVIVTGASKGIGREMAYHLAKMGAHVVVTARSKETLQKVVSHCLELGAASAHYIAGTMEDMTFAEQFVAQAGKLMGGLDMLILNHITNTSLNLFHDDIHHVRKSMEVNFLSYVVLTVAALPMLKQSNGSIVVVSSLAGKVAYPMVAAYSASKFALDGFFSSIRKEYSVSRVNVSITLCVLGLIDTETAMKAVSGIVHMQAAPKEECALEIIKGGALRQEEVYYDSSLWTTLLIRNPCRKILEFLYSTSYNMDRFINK
Method: (§1) Cells were grown in 10 cm dishes to 80% confluence and incubated for 16 h in steroid-free medium (charcoal-treated fetal calf serum (FCS) from HyClone, Logan, Utah). Cells were rinsed once with phosphate-buffered saline (PBS), detached and centrifuged for 3 min at 150×g. The supernatant was removed and the cell pellet quick-frozen in a dry-ice ethanol bath. At the day of experiment, cell pellets were resuspended in buffer TS2 (100 mM NaCl, 1 mM EGTA, 1 mM EDTA, 1 mM MgCl2, 250 mM sucrose, 20 mM Tris-HCl, pH 7.4), sonicated and activities determined immediately. The rate of conversion of cortisol to cortisone or the reverse reaction was determined in 96-well optical PCR reaction plates (Applied Biosystems, Foster City, Calif.) in a final volume of 22 μl, and the tubes were capped during the reaction to avoid evaporation.
Reactions were initiated simultaneously by adding 10 μl of cell lysate and 12 μl of TS2 buffer containing the appropriate concentration of the inhibitory compound to be tested, NADPH, 30 nCi of [1,2,6,7-^3H]-cortisone and unlabeled cortisone, whereby final concentrations were 400 μM NADPH and 100 nM cortisone. Activities were determined immediately after cell disruption by measuring the conversion of radiolabeled cortisone to cortisol for 10 min.
(§2) Enzyme kinetics were analyzed by non-linear regression using Data Analysis Toolbox (MDL Information Systems Inc.) assuming first-order rate kinetics.
(§3) Assay with 20 μM of the corresponding compound in the reaction mixture, added simultaneously with the substrate:
(§4) Determination of IC50 values, using 7 different inhibitor concentrations at factor 2 intervals: […]

[2] = target: T2, human 11β-HSD2 (Homo sapiens, UniProt P80365); experiment: 11β-HSD2 oxidase activity (conversion of radiolabelled cortisol to cortisone) in lysates of stably transfected HEK-293 cells; assay type: biochemical; settings: for 11β-HSD2 % of control: 20 μM compound, 25 nM cortisol substrate, HEK-293 lysate
T2 construct: expressed in transfected cells; host or cells: HEK-293 cells, stably transfected; cell lysate
T2 sequence (P80365 1-405): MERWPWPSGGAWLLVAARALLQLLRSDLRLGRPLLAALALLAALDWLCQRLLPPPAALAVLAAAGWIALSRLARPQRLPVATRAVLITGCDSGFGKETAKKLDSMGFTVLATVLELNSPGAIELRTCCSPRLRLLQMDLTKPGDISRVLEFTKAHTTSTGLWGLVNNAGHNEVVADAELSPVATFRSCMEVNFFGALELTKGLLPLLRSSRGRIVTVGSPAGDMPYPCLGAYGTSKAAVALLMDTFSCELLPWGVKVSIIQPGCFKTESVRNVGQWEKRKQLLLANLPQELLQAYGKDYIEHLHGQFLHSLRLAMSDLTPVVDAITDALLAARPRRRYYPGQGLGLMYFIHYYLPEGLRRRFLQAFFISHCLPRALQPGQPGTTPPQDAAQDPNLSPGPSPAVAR
Method: as §1
Reactions were initiated by simultaneously adding 10 μl of cell lysate and 12 μl of TS2 buffer containing the appropriate concentration of the inhibitory compound to be tested, NAD^+, 30 nCi of [1,2,6,7-^3H]-cortisol and unlabeled cortisol. […] Stock solutions of the inhibitors in methanol or DMSO were diluted in TS2 buffer to yield the appropriate concentrations, whereby the concentration of methanol or DMSO in the reactions were kept below 0.1%. Control reactions with or without 0.1% of the solvent were performed. Incubation was at 37° C. for 10 min with shaking, reactions were terminated by adding 10 μl of stop solution containing 2 mM of unlabeled cortisol and cortisone dissolved in methanol. The conversion of radiolabeled cortisol was determined by separation of cortisol and cortisone using TLC and a solvent system of 9:1 (v/v) chloroform:methanol, followed by scintillation counting.
as §2, §3, §4

[3] = test system: Adjuvant-Induced Arthritis (AIA); experiment: Adjuvant-induced arthritis (AIA), histology of hind joint sections from arthritic rats; assay type: in vivo; settings: rat AIA, injected i.d. early (day0, day2, day4) or late (day9, day11, day13)
Excerpt: An intradermal injection, at the base of the tail, with heat killed Mycobaterium tuberculosum in incomplete Feund's Adjuvans results in destructive arthritis within 14 days in susceptible DA or LEW inbred rat strains. AIA can also be induced with cell walls from other bacterial types in IFA, although the arthritogenicity varies. Increased synthesis of tumor necrosis factor a (TNF-a), interleukin 1 (IL-1) and IL-6 is detected as early as day four after adjuvant injection. The disease progresses rapidly over several weeks in what appears clinically to be a monophasic process.
BX-1 early: BX-1 injected i.d. at the time of disease induction (day0) and day2, day4 BX-1 late: BX-1 injected i.d. at first signs of arthritis, day9, day11, day13.
Samples are from both left and right hind limb of three rats per group of a representative experiment
Rat ankle slides were histologically evaluated according to five criteria (blind evaluation by DL Boyle et al., University of California in San Diego, (J. Immunol., January 2002; 168: 51-56.): • 1. Extra-articular inflammation • 2. Bone marrow inflammation (BM) • 3. Synovial inflammation • 4. Cartilage/bone erosion • 5. Proteoglycan damage

[4] = Mittelwert (mean) of determinations 1-3, read-out: IC 50 11β-HSD1, Mittelwert
[5] = 7 inhibitor concentrations at factor 2 intervals
[6] = Mittelwert (mean) of the determinations, read-out: IC 50 11β-HSD2, Mittelwert

Structure (SMILES) | 11β-HSD1 % of control [1] | 11β-HSD2 % of control [2] | also measured
COc1cc2c(cc1OC)C(COc1ccc([N+](=O)[O-])cc1)N(C(=O)c1ccc(Cl)c([N+](=O)[O-])c1)CC2 (centres unmarked) [BNW27] | 78.64 % of control | 126.4 % of control | 
Cc1nn(CC(=O)Nc2sc(C)c(C)c2C(N)=O)c(C)c1[N+](=O)[O-] [BNW4] | 82.24 % of control | 95.05 % of control | 
CC(=O)OC1CC[C@]2(C)C3=C(C(=O)C[C@H]2C1(C)C)[C@]1(C)CCC(C(C)CCC(=O)O)[C@@]1(C)CC3=O (some centres unmarked) [BNW16] | 2.708* % of control | 27.37 % of control | IC50 [1, 4]: 144 nM; IC50 [2, 6]: 3950 nM; IC 50 11β-HSD2, determination 1 [2, 5]: out of range
COc1ccc(C(=O)C2=C(O)C(=O)N(CCCn3ccnc3)C2c2ccccc2)cc1Cl (centres unmarked) [BNW21] | 48.94 % of control | 121.6 % of control | 
Cc1cccc(C)c1C1C(SCC(=O)Nc2c(Cl)cccc2Cl)=NN=C1c1cccc([S+]([O-])N(C)C)c1 (centres unmarked) [BNW11] | 70.1 % of control | 120.9 % of control | 
COC(=O)[C@@]1(C)CC[C@]2(C)CC[C@]3(C)C(=CC(=O)[C@@H]4[C@@]5(C)CC[C@H](Oc6ccccc6C(=O)O)C(C)(C)[C@@H]5CC[C@]43C)[C@@H]2C1 [BNW13] | 3.879* % of control | 14.37* % of control | IC50 [1, 4]: 691 nM; IC50 [2, 6]: 281 nM; IC 50 11β-HSD2, determination 1 [2, 5]: out of range
COc1cccc(/C=N/NC(=O)CSCc2ccccc2C)c1OC [BNW23] | 85.07 % of control | 132.6608 % of control | 
CCOc1ccc(C2C(C(=O)c3ccc(Cl)cc3)=C(O)C(=O)N2CCCn2ccnc2)cc1OCC (centres unmarked) [BNW22] | 41.32 % of control | 104.3 % of control | 
COc1ccc(OC)c(C2C(C(=O)c3ccc(Br)cc3)=C(O)C(=O)N2CCCn2ccnc2)c1 (centres unmarked) [BNW2] | 78.84 % of control | 77.95 % of control | 
CCN(CC(O)COc1cc(C)c(Cl)c(C)c1)S(=O)(=O)O (centres unmarked) [BNW1] | 102.1 % of control | 96.77 % of control | 
COc1cc(/C=N/NC(=O)CSc2nc3ccccc3n2Cc2ccc(C)cc2)cc(OC)c1OC(C)=O [BNW28] | 76.73 % of control | 137 % of control | 
COc1ccc(C(=O)CNc2cccc(Cl)c2Cl)c(C(F)(F)F)c1 [BNW6] | 79.64 % of control | 145 % of control | 
CC1(C)[C@@H](O)CC[C@]2(C)[C@H]3C(=O)C=C4[C@@H]5C[C@@](C)(C(=O)O)CC[C@]5(C)CC[C@@]4(C)[C@]3(C)CC[C@@H]12 [BX-1, 18-β-glycyrrhetinic acid] |  |  | influence on the pathology of arthritis (T-cell and dendritic cell activation, systemic inflammation, bone marrow infiltration) [3]: positively influence all arms of the pathology of arthritis
CC1(C)[C@@H](OCO)CC[C@]2(C)[C@H]3C(=O)C=C4C5=C[C@@](C)(C(=O)O)CC[C@]5(C)CC[C@@]4(C)[C@]3(C)CC[C@@H]12 [BNW15] | 50.37 % of control | 56.95 % of control | 

Further lines, with some results ahead:

11β-HSD1 % of control [1] | 11β-HSD2 % of control [2] | Structure (SMILES) | also measured
30.65 % of control | 77.43 % of control | COCCC1C(=O)C(O)=C(C(=O)c2ccc(OC)c(C)c2)C1c1ccc(Cl)cc1Cl (centres unmarked) [BNW9] | 
9.593* % of control | 139.5 % of control | COc1ccc(CCNC(=O)C23CCC(C)(C(=O)C2=O)C3(C)C)cc1OC (centres unmarked) [BNW7] | IC50 [1, 4]: 2030 nM; IC 50 11β-HSD2, determination 1 [2, 5]: did not inhibit; IC 50 11β-HSD2, determination 2 ([2]; determination 2, 7 inhibitor concentrations at factor 2 intervals): did not inhibit; IC 50 11β-HSD2, determination 3 ([2]; determination 3, 7 inhibitor concentrations at factor 2 intervals): did not inhibit
94.07 % of control | 136.8 % of control | COc1ccc(CNC(=O)C2CCC(=O)N2C2CCCC2)cc1OC (centres unmarked) [BNW26] | 
2.884* % of control | 13.93* % of control | C[C@H]1CC[C@]2(C)[C@H]3C(=O)C=C4[C@@H]5C[C@@](C)(C(=O)O)CC[C@]5(C)CC[C@@]4(C)[C@]3(C)CC[C@H]2C1(C)C [BNW25] | IC50 [1, 4]: 172 nM; IC50 ([1]; determination 1, 7 inhibitor concentrations at factor 2 intervals, read-out: IC 50 11β-HSD1, determination 1): 147 nM; IC50 ([1]; determination 2, 7 inhibitor concentrations at factor 2 intervals, read-out: IC 50 11β-HSD1, determination 2): 206 nM; IC50 ([1]; determination 3, 7 inhibitor concentrations at factor 2 intervals, read-out: IC 50 11β-HSD1, determination 3): 161 nM; IC50 [2, 6]: 59.7 nM; IC 50 11β-HSD2, determination 1 [2, 5]: out of range; IC50 ([2]; determination 2, 7 inhibitor concentrations at factor 2 intervals, read-out: IC 50 11β-HSD2, determination 2): 54.6 nM; IC50 ([2]; determination 3, 7 inhibitor concentrations at factor 2 intervals, read-out: IC 50 11β-HSD2, determination 3): 64.9 nM
60.25 % of control | 53.57 % of control | CCCCOc1ccc(C(=O)C2=C(O)C(=O)N(CCOC)C2c2cccnc2)c(C)c1 (centres unmarked) [BNW3] | 
92.03 % of control | 82.81 % of control | CSc1nc2cc(C)c(C)cc2n1C1OC(CO)C(O)C1O (centres unmarked) [BNW18] | 
88.22 % of control | 120.1 % of control | CCOc1ccc(C2c3cc(OCC)c(OCC)cc3CC(=O)N2c2ccc(C(=O)O)cc2)cc1OCC (centres unmarked) [BNW17] | 
46.83 % of control | 120.7 % of control | COCCN1C(=O)C(O)=C(C(=O)c2ccc(OC)c(C)c2)C1c1ccc(C)cc1 (centres unmarked) [BNW20] | 
48.36 % of control | 140 % of control | CCC(Sc1nnc(-c2ccc(OC)c(OC)c2)c(-c2ccc(OC)c(OC)c2)n1)C(=O)N(CC)CC (centres unmarked) [BNW30] | 
69.75 % of control | 97.47 % of control | Cc1n[nH]c(O)c1C(c1ccc(-c2ccc(Cl)c(C(=O)O)c2)o1)c1c(O)n[nH]c1C [BNW5] | 
85.36 % of control | 132.1 % of control | CCN(CC)S(=O)(=O)c1ccc(Cl)c(C(=O)Nc2nc3ccc(S(C)(=O)=O)cc3s2)c1 [BNW12] | 
75.29 % of control | 115.4 % of control | CCN(CC)S(=O)(=O)c1ccc(OC)c(-c2nnc(-c3cc(S(=O)(=O)N(CC)CC)ccc3OC)o2)c1 [BNW29] | 
41.71 % of control | 102.7 % of control | NC(=O)c1c(NC(=O)C2CC=CCC2C(=O)O)sc2c1CCCCC2 (centres unmarked) [BNW8] | 
